Article PMC8145986, “In Vitro Enzymatic and Kinetic Studies, and In Silico Drug-Receptor Interactions, and Drug-Like Profiling of the 5-Styrylbenzamide Derivatives as Potential Cholinesterase and β-Secretase Inhibitors with Antioxidant Properties” (Antioxidants, 2021)

Experiments:
AChE = molecular target: T1, AChE (Homo sapiens, UniProt P22303); assay: biochemical; details: mean ± SD of three independent experiments
T1 construct: purchased BioLegend (via Biocom Africa (Pty) Ltd.)
Method: The melting point values of the test compounds were recorded on a Thermocouple digital melting point apparatus (Mettler Toledo LLC, Columbus, OH, USA). The infrared (IR) spectra were recorded using the thin-film method on a Bruker VERTEX 70 FT-IR Spectrometer (Bruker Optics, Billerica, MA, USA) equipped with an ATR (diamond attenuated total reflectance) accessory. Merck kieselgel 60 (0.063–0.200 mm) (Merck KGaA, Frankfurt, Germany) was used as a stationary phase for column chromatography. The ^1H-NMR and ^13C-NMR spectra of the prepared compounds were obtained as deuterated dimethyl sulfoxide ((CD3)2SO) solutions using Agilent 500 MHz NMR spectrometer (Agilent Technologies, Oxford, UK) operating at 500 MHz and 125 MHz for ^1H and ^13C, respectively. The chemical shifts are quoted relative to tetramethylsilane (TMS) used as an internal reference standard (δ = 0.00 ppm) or a residual protonated solvent. The high-resolution mass spectra were recorded at an ionization potential of 70 eV using Micromass Autospec-TOF (double focusing high resolution) instrument (Waters Corp., Milford, MA, USA). The synthesis and analytical data for 2-amino-5-iodobenzamide (1) have been reported in our previous study. Recombinant human AChE (BioLegend) and BChE (Cloud-Clone Corp.) were purchased via Biocom Africa (Pty) Ltd. (Centurion, Pretoria, South Africa).
AChE and BChE were used to determine cholinesterase activities spectrophotometrically using […] as substrates, respectively, following a modification of the Ellman’s method, as described in our previous study, and the reactions were performed in triplicate at 37 °C in a 96-well plate. […] A multi-channel pipette was used for the addition of reagents to the wells.
To each well of a 96-well plate, 8.0 μL solution of the test compound, 2.0 μL of AChE (0.04 mg/mL), and 70 μL of Tris buffer (C4H11NO3, 50 mM, pH 7.7) were added sequentially. The assay mixture was pre-incubated for 30 min at room temperature, which was followed by the addition of 10 μL of 5,5′-dithiobis-(2-nitrobenzoic acid) (DTNB, 3 mM in Tris buffer, 50 mM, pH 7.7) and 10 μL of […] (AChI, 5 mM in tris buffer, 50 mM, pH 7.7) to each well to initiate the reaction. […] The average values obtained from the absorbance readings were used to determine the IC50 and standard deviation values using the Graph Pad Prism (version 5.0, GraphPad software Inc., San Diego, CA, USA).

β-secretase = molecular target: T2, β-secretase (Homo sapiens, UniProt P56817); assay: Enzyme kinetic study on β-secretase (Lineweaver-Burk and Dixon plots); format: biochemical
T2 construct: purchased Thermo Fisher Scientific Corporation; host or cells: baculovirus-expressed
Method: Compounds 2a and 3b were subjected to kinetic studies on β-secretase using substrate concentrations 150, 300, and 450 nM at increasing inhibitor concentrations (0, 4, 8, and 16 μM) following a method reported before. The fluorescence readings were recorded after every 1 s for 10 s at excitation and emission values of 545 nm and 590 nm, respectively. The Lineweaver–Burk plots (plots of the inverse of velocity against the inverse of the substrate concentration) were constructed to assess changes in enzymatic parameters. The Dixon plots were also prepared to determine the inhibitor constants, Ki.

A549 cells = assay: LPS-induced ROS production in A549 cells (H2DCF-DA); format: cell-based, human; details: 10 μM compound, LPS 1 μg/mL, 24 h (Figure 9b)
Method: Mitochondrial ROS levels in Vero and A549 cell lines was measured using the 2′,7′-dichlorofluorescin diacetate (H2DCF-DA) (Sigma-Aldrich, St. Louis, MO, USA, Merck, Darmstadt, Germany), fluorescent probe. Cells (1 × 10^5) were seeded in 96 well plates and incubated overnight at 37 °C in 5% CO2. A minimum non-toxic concentration (10 μM) of compounds (2a and 3b) was added separately as treatment and further incubated for an hour, after which LPS (1 μg/mL) was added to induce the production of ROS. After 24 h of incubation, the media was aspirated, cells were rinsed with PBS, and followed by the addition of H2DCF-DA (10 μM) for 30 min in the dark. The absorbance of the fluorescence was measured using a microplate reader (VarioSkan Flash, Thermo Fisher Scientific, Finland) at 485 and 535 nm values of excitation and emission, respectively. Data was processed and analysed using ANOVA, which was followed by Duncan’s multiple comparison test.

BChE = molecular target: T3, BChE (Homo sapiens, UniProt P06276); assay: Enzyme kinetic study against BChE (Lineweaver-Burk and Dixon plots); format: biochemical
T3 construct: purchased Cloud-Clone Corp. (via Biocom Africa (Pty) Ltd.)
Method: The AChE and BChE enzyme kinetic studies were performed in triplicate in a 96-well plate following a procedure described in our previous study. Varying concentrations of 2a or 3c (0, 2.5, 3.5, and 5 μM) and AChI or BChI (0.1, 0.5, 2.5, and 5 mM) were used for the kinetic assays. The absorbances were measured after every 1 s for 10 s at a wavelength of 412 nm using a microplate spectrophotometer reader. The Lineweaver–Burk plots (plot of the inverse of velocity (1/v) against the inverse of the substrate concentration (1/[S])) were constructed.

in vitro = details: human, A549 cells (adeno-carcinomic human epithelial cells)
Method: The cytotoxicity activity of the compounds was evaluated using the 3-(4,5-dimethylthiazol-2-yl)-2,5-diphenyltetrazolium bromide (MTT) assay following a modification of a method by Mosmann. Normal monkey kidney cells (Vero cells) and adeno-carcinomic human epithelial cells (A549 cells) were maintained in Dulbecco’s modified Eagle’s medium (DMEM, Gibco) supplemented with 10% fetal bovine serum (FBS) and 1% penicillin/streptomycin in culture flasks and incubated at 37 °C in 5% CO2. […] Cells were seeded at 1 × 10^5 cells/well and incubated overnight to allow cell attachment. After 24 h, treatments were administered with different concentrations (0, 2.5, 5, 10, 25, 50, and 100 μM) of the compounds and doxorubicin (positive control). After 24 h of incubation, 20 μL of the MTT solution (5 mg/mL) was added in all the wells, which was followed by 4 h of incubation.

T2 sequence (P56817 46-501): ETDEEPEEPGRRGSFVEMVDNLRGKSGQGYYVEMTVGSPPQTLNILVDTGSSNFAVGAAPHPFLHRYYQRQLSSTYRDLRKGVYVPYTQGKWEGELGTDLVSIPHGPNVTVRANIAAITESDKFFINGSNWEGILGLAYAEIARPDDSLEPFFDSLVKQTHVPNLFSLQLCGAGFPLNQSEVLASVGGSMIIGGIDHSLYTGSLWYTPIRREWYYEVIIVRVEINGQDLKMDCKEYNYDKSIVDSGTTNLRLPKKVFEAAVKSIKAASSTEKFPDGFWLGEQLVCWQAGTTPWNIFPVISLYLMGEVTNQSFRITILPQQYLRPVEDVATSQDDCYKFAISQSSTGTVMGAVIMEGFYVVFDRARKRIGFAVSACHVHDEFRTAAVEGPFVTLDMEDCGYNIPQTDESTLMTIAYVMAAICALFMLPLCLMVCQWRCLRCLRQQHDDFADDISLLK
T3 sequence (P06276 29-602): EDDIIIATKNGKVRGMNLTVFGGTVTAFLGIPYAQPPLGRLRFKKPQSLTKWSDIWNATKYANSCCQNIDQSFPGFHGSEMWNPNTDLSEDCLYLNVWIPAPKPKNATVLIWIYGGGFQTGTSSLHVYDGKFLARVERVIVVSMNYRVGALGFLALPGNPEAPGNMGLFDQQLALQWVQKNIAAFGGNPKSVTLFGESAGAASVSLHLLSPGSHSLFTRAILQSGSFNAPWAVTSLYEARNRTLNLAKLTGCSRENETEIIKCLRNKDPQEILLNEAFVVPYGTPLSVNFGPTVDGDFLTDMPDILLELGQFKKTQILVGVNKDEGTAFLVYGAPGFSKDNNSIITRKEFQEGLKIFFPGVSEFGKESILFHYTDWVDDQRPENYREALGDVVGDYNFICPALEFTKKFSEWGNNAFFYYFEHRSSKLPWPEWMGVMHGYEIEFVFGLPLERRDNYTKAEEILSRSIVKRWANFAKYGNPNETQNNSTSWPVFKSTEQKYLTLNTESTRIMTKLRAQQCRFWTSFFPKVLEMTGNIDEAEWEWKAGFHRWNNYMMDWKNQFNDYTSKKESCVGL
T1 sequence (P22303 32-614): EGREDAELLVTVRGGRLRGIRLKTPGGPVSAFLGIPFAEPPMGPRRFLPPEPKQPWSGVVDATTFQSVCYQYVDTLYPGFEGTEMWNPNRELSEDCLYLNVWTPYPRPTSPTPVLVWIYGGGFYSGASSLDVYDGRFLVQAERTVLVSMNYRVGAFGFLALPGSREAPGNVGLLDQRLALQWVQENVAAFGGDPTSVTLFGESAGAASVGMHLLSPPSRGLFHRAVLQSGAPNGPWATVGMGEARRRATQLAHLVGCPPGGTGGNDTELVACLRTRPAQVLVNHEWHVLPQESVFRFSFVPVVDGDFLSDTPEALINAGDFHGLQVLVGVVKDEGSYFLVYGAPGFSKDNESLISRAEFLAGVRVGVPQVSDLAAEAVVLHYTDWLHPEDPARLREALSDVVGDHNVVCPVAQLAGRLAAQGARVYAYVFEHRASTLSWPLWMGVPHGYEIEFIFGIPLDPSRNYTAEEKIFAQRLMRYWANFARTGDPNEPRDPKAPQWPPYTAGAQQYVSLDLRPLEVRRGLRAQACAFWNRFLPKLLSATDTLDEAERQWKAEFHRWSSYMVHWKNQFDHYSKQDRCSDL

In the case of `NC(=O)c1cc(/C=C/c2ccccc2)ccc1N` [Compound 2a, (E)-2-Amino-5-styrylbenzamide], the IC50 (AChE) is reported as 2300 ± 110 nM, the “mode of inhibition β-secretase” value (β-secretase) is reported as “mixed mode” and the Ki (β-secretase; read-out: Ki (Dixon plot) β-secretase) is reported as 3440 ± 300 nM. The ROS reduction (A549 cells) was “about 65%”, the “mode of inhibition BChE” value (BChE) was “mixed mode” and the Ki (BChE; read-out: Ki (Dixon plot) BChE) was 2000 nM. The IC50 at 24 h (in vitro) was 35400 ± 130 nM.
